Here are results for 38 molecules from ChEMBL document CHEMBL4483862, “Open-source discovery of chemical leads for next-generation chemoprotective antimalarials” (2018).

Broadly, the pIC50 is the negative decadic logarithm of the IC50, by convention in mol/L. Usually IC90 stands for the concentration needed for an effect of 90%.

pIC50: −log10 of the molar value.

The subject of this experiment is Plasmodium berghei. In words: Luciferase/luciferin-expressing antifolate-resistant parasites were used to infect a culture of HepG2 cells that were pre-incubated with compounds. Infected hepatocytes emit light due to the luciferase reaction. Assay results are presented as the percent inhibition of light emission compared to control. […]. The class given is functional. As to conditions: sporozoite; for IC90: read-out: LUCIFERASE INFECTION ASSAY - IC90.

The mark [1] stands for this setting: read-out: LUCIFERASE INFECTION ASSAY - IC50.

For `Cc1nc(SCc2ccc(C(F)(F)F)cc2)n(C)c(=O)c1Oc1ccc(F)cc1`, the concentration for an effect of 90% (IC90) was above 7.78 µM. Further, under setting [1], the pIC50 was below 5.11.
In the case of `OCCNc1nc(Sc2ccc(Cl)cc2)nc2ccccc12`, the IC90 was above 10 µM. For the same molecule, the pIC50 under setting [1] was below 5.00.
In the case of `O=[N+]([O-])c1ccc(Sc2nc(-c3ccccc3)c(-c3ccccc3)[nH]2)cc1`, the 90% effect concentration (IC90) is above 8.84 µM. For the same molecule, the pIC50 (FFLUC_HILL_SLOPE 23.8, FFLUC_R_SQUARED 0.615, read-out: LUCIFERASE INFECTION ASSAY - IC50) is below 5.05.
For the molecule `O=C(COc1ccc(C23CC4CC(CC(C4)C2)C3)cc1)N1CCCC1`, the concentration for an effect of 90% (IC90) worked out at 2.75 µM. The pIC50 (PBLUC_HILL_SLOPE 2.17, PBLUC_R_SQUARED 0.715, read-out: LUCIFERASE INFECTION ASSAY - IC50) was 6.00.
For `Cc1sc2nc3n(c(=O)c2c1C)CC/C3=C/c1cccc2ccccc12`, the 90% effect concentration (IC90) is above 10 µM. Moreover, the pIC50 (HEPG2TOX_HILL_SLOPE 0.688, HEPG2TOX_R_SQUARED 0.114, PBLUC_HILL_SLOPE 1.25, PBLUC_R_SQUARED 0.514, read-out: LUCIFERASE INFECTION ASSAY - IC50) is 5.52.
As for `Cc1nn2c(=O)cc(C(C)C)[nH]c2c1-c1ccccc1`, the IC90 is 10.5 µM. Also, the pIC50 (PBLUC_HILL_SLOPE 3.42, PBLUC_R_SQUARED 0.611, read-out: LUCIFERASE INFECTION ASSAY - IC50) is 5.26.
As to `Cc1ccc(Cn2nnc(-c3ccccc3C)n2)cc1`, the IC90 was above 12.5 µM. Further, under setting [1], the pIC50 is below 4.90.
Take `N#Cc1ccc(Nc2nc(C(F)(F)F)nc3ccccc23)cc1`: the 90% effect concentration (IC90) was found to be 5.09 µM. Besides, the pIC50 (HEPG2TOX_HILL_SLOPE 12.3, HEPG2TOX_R_SQUARED 0.755, PBLUC_HILL_SLOPE 4.38, PBLUC_R_SQUARED 0.727, read-out: LUCIFERASE INFECTION ASSAY - IC50) was 5.51.
With `Cn1ccc2cc(-c3cnc4cnc(-c5cccc(C(=O)NCCO)c5)cn34)ccc21`, the IC90 was determined as 3.63 µM. Further, under “HEPG2TOX_HILL_SLOPE 4.1, HEPG2TOX_R_SQUARED 0.752, PBLUC_HILL_SLOPE 9.77, PBLUC_R_SQUARED 0.277, read-out: LUCIFERASE INFECTION ASSAY - IC50”, the negative-log IC50 (pIC50) is 5.54.
For `CCN(CC)C(=O)c1ccc(Nc2nc(C(F)(F)F)nc3ccccc23)cc1`, the 90% effect concentration (IC90) was above 10 µM. Also, the pIC50 (HEPG2TOX_HILL_SLOPE 3.04, HEPG2TOX_R_SQUARED 0.82, PBLUC_HILL_SLOPE 1.45, PBLUC_R_SQUARED 0.471, read-out: LUCIFERASE INFECTION ASSAY - IC50) was 5.24.
Turning to `O=C(NCc1ccc(C(F)(F)F)cc1)c1cc(C(F)(F)F)cc(C(F)(F)F)c1`, the concentration for an effect of 90% (IC90) is above 7.95 µM. Further, the pIC50 under setting [1] is below 5.10.
Regarding `CCN1CCc2nc(NC(=O)c3nc(-c4cccs4)n(-c4ccc(F)cc4)n3)sc2C1`, the 90% effect concentration (IC90) is above 10 µM. In addition, the negative-log IC50 (pIC50) under setting [1] is below 5.00.
With `COc1cccc(N2C(=O)CC(n3nc(Nc4cccc(C)c4)sc3=S)C2=O)c1` (stereo unspecified), the 90% effect concentration (IC90) was above 10 µM. The negative-log IC50 (pIC50) under setting [1] is below 5.00.
Take `CC(=O)NCCC(=O)N(Cc1ccccc1)c1nc2c(C(C)C)cccc2s1`: the concentration for an effect of 90% (IC90) is 6.02 µM. In addition, for the setting “PBLUC_HILL_SLOPE 286, PBLUC_R_SQUARED 0.442, read-out: LUCIFERASE INFECTION ASSAY - IC50”, the negative-log IC50 (pIC50) is 5.22.
In the case of `CC(C)(C)C(=O)CSc1nnc(Nc2ccc(Oc3ccccc3)cc2)s1`, the IC90 is above 10 µM. Also, for the setting “PBLUC_HILL_SLOPE 14.1, PBLUC_R_SQUARED 0.105, read-out: LUCIFERASE INFECTION ASSAY - IC50”, the pIC50 is 5.00.
Take `O=C(Nc1ncc(Cc2ccc(F)c(F)c2)s1)c1ccc2nc[nH]c2c1`: the IC90 is above 10 µM. For the setting “HEPG2TOX_HILL_SLOPE 13.7, HEPG2TOX_R_SQUARED 0.959, PBLUC_HILL_SLOPE 2.28, PBLUC_R_SQUARED 0.72, read-out: LUCIFERASE INFECTION ASSAY - IC50”, the pIC50 is 5.36.
On to `O=c1cc(Nc2ccc(F)cc2)c2ccccc2o1`, for which the concentration for an effect of 90% (IC90) was determined as 12.8 µM. Under “PBLUC_HILL_SLOPE 3.61, PBLUC_R_SQUARED 0.0806, read-out: LUCIFERASE INFECTION ASSAY - IC50”, the pIC50 was 5.16.
With `CCc1ccc(CN2CCc3c(c(C(=O)N4CCCC(O)C4)nn3Cc3cccc(OC)c3)C2)cc1` (stereo unspecified), the IC90 was above 6.75 µM. Moreover, where the note is “PBLUC_HILL_SLOPE 17.4, PBLUC_R_SQUARED 0.568, read-out: LUCIFERASE INFECTION ASSAY - IC50”, the negative-log IC50 (pIC50) is 5.19.
As for `CNc1cc(C(C)C)nc2c(-c3ccccc3)cnn12`, the IC90 is above 12.4 µM. Moreover, the pIC50 (PBLUC_HILL_SLOPE 1.1, PBLUC_R_SQUARED 0.428, read-out: LUCIFERASE INFECTION ASSAY - IC50) was 5.02.
`CCCCNS(=O)(=O)c1ccc2nc(SCc3cccc(OC)c3)[nH]c2c1`: the concentration for an effect of 90% (IC90) is above 10 µM. Moreover, the negative-log IC50 (pIC50) under setting [1] was below 5.00.
Take `COc1ccc2[nH]c3c(NCCC4=CCCCC4)ncnc3c2c1`: the 90% effect concentration (IC90) came to 5.19 µM. Further, the negative logarithm of the IC50 (pIC50) (HEPG2TOX_HILL_SLOPE 2.01, HEPG2TOX_R_SQUARED 0.344, PBLUC_HILL_SLOPE 1.69, PBLUC_R_SQUARED 0.738, read-out: LUCIFERASE INFECTION ASSAY - IC50) was 5.85.
Turning to `CC(C)c1ccc(-c2cnc3sc(NCc4ccncc4)nn23)cc1`, the concentration for an effect of 90% (IC90) is above 9.44 µM. The negative logarithm of the IC50 (pIC50) (FFLUC_HILL_SLOPE 6.11, FFLUC_R_SQUARED 0.0312, HEPG2TOX_HILL_SLOPE 0.148, HEPG2TOX_R_SQUARED 0.0475, read-out: LUCIFERASE INFECTION ASSAY - IC50) was below 5.03.
For the molecule `CN=C1NN=C(c2cc(C)n(-c3ccc(OC)cc3)c2C)CS1`, the concentration for an effect of 90% (IC90) is above 10 µM. Besides, for the setting “PBLUC_HILL_SLOPE 1.15, PBLUC_R_SQUARED 0.417, read-out: LUCIFERASE INFECTION ASSAY - IC50”, the pIC50 is below 5.00.
On to `Cc1ccc(S(=O)(=O)Nc2ccc(Oc3ccc(Cl)cc3)cc2)cc1`, for which the IC90 is above 8.83 µM. The pIC50 (FFLUC_HILL_SLOPE 2.59, FFLUC_R_SQUARED 0.0226, PBLUC_HILL_SLOPE 17.9, PBLUC_R_SQUARED 0.275, read-out: LUCIFERASE INFECTION ASSAY - IC50) was 5.08.
For `CC1(c2ccco2)NC(=O)N(NC(=O)c2ccc3ccccc3n2)C1=O` (stereo unspecified), the IC90 is above 10 µM. The negative logarithm of the IC50 (pIC50) under setting [1] was below 5.00.
Turning to `O=C(COc1ccc2[nH]c3ccccc3c(=O)c2c1)N1c2ccccc2OCC1c1ccccc1` (stereo unspecified), the 90% effect concentration (IC90) is 0.0412 µM. For the same molecule, the negative-log IC50 (pIC50) (FFLUC_HILL_SLOPE 10.4, FFLUC_R_SQUARED 0.204, PBLUC_HILL_SLOPE 2.2, PBLUC_R_SQUARED 0.922, read-out: LUCIFERASE INFECTION ASSAY - IC50) was 7.82.
Consider `O=C(Nc1ccc(Oc2ccccc2)cc1)C1=CN2CCN(Cc3ccccc3)C(=O)N=C2O1`, for which the IC90 is above 10 µM. For the same molecule, the pIC50 under setting [1] is below 5.00.
With `CN(C)c1cccc(-c2cnc3cnc(-c4ccc(C(=O)NC5CC5)cc4)cn23)c1`, the concentration for an effect of 90% (IC90) is above 8.3 µM. Also, where the note is “PBLUC_HILL_SLOPE 2.95, PBLUC_R_SQUARED 0.0505, read-out: LUCIFERASE INFECTION ASSAY - IC50”, the pIC50 is 5.12.
For the molecule `CN(C)C(=O)CNC(=O)c1cc(-c2ccccc2)nc2c1cnn2Cc1ccccc1Cl`, the 90% effect concentration (IC90) is above 10 µM. The pIC50 (PBLUC_HILL_SLOPE 13.5, PBLUC_R_SQUARED 0.27, read-out: LUCIFERASE INFECTION ASSAY - IC50) is 5.06.
Take `FC(F)(F)c1nc2ccccc2n2c(-c3ccc(Br)cc3)nnc12`: the IC90 was above 8.39 µM. For the same molecule, the negative logarithm of the IC50 (pIC50) under setting [1] was below 5.08.
With `CCN(CC)CC(O)COc1cc(C(F)(F)F)ccn1` (stereo unspecified), the 90% effect concentration (IC90) is above 11.3 µM. For the same molecule, the negative-log IC50 (pIC50) under setting [1] was below 4.95.
With `Cc1nn2c(NCCCn3ccnc3)cc(C(C)(C)C)nc2c1-c1ccccc1`, the IC90 was 3.07 µM. Besides, for the setting “FFLUC_HILL_SLOPE 16.6, FFLUC_R_SQUARED 0.48, HEPG2TOX_HILL_SLOPE 8.1, HEPG2TOX_R_SQUARED 0.76, PBLUC_HILL_SLOPE 15.5, PBLUC_R_SQUARED 0.267, read-out: LUCIFERASE INFECTION ASSAY - IC50”, the pIC50 is 5.58.
`Fc1ccc(Nc2ncnc3c2cnn3Cc2ccc(Cl)cc2)cc1`: the concentration for an effect of 90% (IC90) worked out at 9.37 µM. Moreover, the pIC50 (PBLUC_HILL_SLOPE 4.8, PBLUC_R_SQUARED 0.59, read-out: LUCIFERASE INFECTION ASSAY - IC50) was 5.23.
`COc1cccc(CN(C)c2ncnc3sc(C)c(C)c23)c1OC`: the IC90 stood at 3.84 µM. Further, the pIC50 (HEPG2TOX_HILL_SLOPE 2.36, HEPG2TOX_R_SQUARED 0.798, PBLUC_HILL_SLOPE 15.6, PBLUC_R_SQUARED 0.417, read-out: LUCIFERASE INFECTION ASSAY - IC50) was 5.48.
On to `COc1cc(C2NCC(c3ccccc3Cl)c3c2[nH]c2ccccc32)ccc1OCc1cccc(C(F)(F)F)c1` (stereo unspecified), for which the concentration for an effect of 90% (IC90) was above 10 µM. Besides, for the setting “FFLUC_HILL_SLOPE 97, FFLUC_R_SQUARED 0.0371, HEPG2TOX_HILL_SLOPE 1.2, HEPG2TOX_R_SQUARED 0.293, PBLUC_HILL_SLOPE 8.25, PBLUC_R_SQUARED 0.22, read-out: LUCIFERASE INFECTION ASSAY - IC50”, the negative-log IC50 (pIC50) is 5.07.
`CC(C)C(CNc1ncnc2cc(Cl)ccc12)N1CCN(C)CC1` (stereo unspecified): the IC90 was above 10 µM. The negative-log IC50 (pIC50) (HEPG2TOX_HILL_SLOPE 6.21, HEPG2TOX_R_SQUARED 0.178, read-out: LUCIFERASE INFECTION ASSAY - IC50) was below 5.00.
With `CSc1nc(=O)nc(-c2ccc(Cl)cc2)[nH]1`, the IC90 is above 13 µM. Also, the negative-log IC50 (pIC50) under setting [1] is below 4.89.
Regarding `CC(C)NC(=O)c1c(NC(=O)c2ccc(Cl)cc2)nc2ccccn12`, the IC90 is 1.07 µM. For the same molecule, for the setting “HEPG2TOX_HILL_SLOPE 2.11, HEPG2TOX_R_SQUARED 0.869, PBLUC_HILL_SLOPE 50.8, PBLUC_R_SQUARED 0.665, read-out: LUCIFERASE INFECTION ASSAY - IC50”, the pIC50 was 5.99.
